Assay results from patent publication US20240156790A1, “COMPOUNDS, COMPOSITIONS, AND METHODS FOR MODULATING FERROPTOSIS AND TREATING EXCITOTOXIC DISORDERS” (THE TRUSTEES OF COLUMBIA UNIVERSITY IN THE CITY OF NEW YORK, priority 2018, published 2024).
Entries after “also recorded” stand apart in the source; their conditions may differ.

Legend:
[1] = Microsomal Stability Assay (Examples 6 and 8); assay type: in vitro ADME, mouse; settings: for microsomal stability / half-life, in words: assessed over two hours; for half-life at 20 µM: CD-1, mouse, liver microsomes, pH 7.4, text, read-out: half-life in mouse liver microsomes
Description: (§1) To a 96-well polypropylene plate was added phosphate buffer (182.2 μL, pH 7.4, 100 mM) followed by addition of NADPH-regenerating system solution A (10 μL), and NADPH regenerating system solution B (2 μL) (Corning Gentest 3P NADPH regenerating system solution A (#451220) and B (#451200)). A stock solution of analog (0.8 μL. 5 mM) or fer-1 (positive control) was added and the mixture was warmed to 37° C. for 5 min. Mouse microsomes (CD-1, 20 mg/mL, Life Technologies) (5 μL, thawed in 37° C. water bath before use) were added. The resulting reaction mixture was kept at 37° C. with gentle agitation for the duration of the experiment. At selected time points (0, 1, 5, 10, 20, 30, 60 and 120 min) aliquots (15 μL) were withdrawn from the plate and quenched upon addition to cold methanol (60 μL), containing an internal standard (5 μM) in a separate 96-well polypropylene plate. At the completion of the final time-point, the samples were centrifuged at 4,000 rpm for 5 min at 4° C. The supernatant (40 μL) was withdrawn and transferred to a sample vial with insert. The samples were analyzed by LC-MS. LC-MS analysis was performed on a platform comprising a Thermo Scientific Dionex Ultimate 3000 and a Bruker amaZon SL equipped with an electrospray ionization source controlled by Bruker Hystar 3.2. Chromatographic separation was performed by injecting 5 μL of the sample onto an Agilent Eclipse Plus C18 column (2.1×50 mm, 3.5 μm) maintained at 20° C. The flow rate was maintained at 400 μL/min. The initial flow conditions were 80% solvent A (water containing 0.1% acetic acid) and 20% solvent B (methanol containing 0.1% acetic acid). Solvent B was raised to 80% over 0.50 min by 1.50 min. Solvent B was raised to 100% by 5.00 min and held there for 3.25 min. […] All analogs were detected in positive mode as [M+H]*. The percent of compound remaining at each time-point was calculated as the ratio of the integrated compound peak over the internal standard peak and standardized to the t=0 time-point. Values were plotted in GraphPad Prism 9 and fit with a one phase decay.
as §1, with “and NADPH-regenerating” for “and NADPH regenerating”, “rpm (1872 g)” for “rpm”, “[M+H]*. […]” for “[M+H]*. The percent of compound remaining at each time-point was calculated as the ratio of the integrated compound peak over the internal standard peak and standardized to the t=0 time-point. Values were plotted in GraphPad Prism 9 and fit with a one phase decay.”

HT-1080 cells = test: Cell viability assays in HT-1080 cells, ferroptosis induced by IKE or RSL3 (Example 8); assay type: cell-based; settings: for IC50: Homo sapiens, HT-1080, 48 h
Description: Cell culture assays were incubated at 37° C. with 5% CO2. HT-1080 cells were grown in DMEM (Corning) supplemented with 10% FBS (Life Technologies), 1% Penicillin-Streptomycin 10,000 U/mL (Gibco), and 1% MEM Non-Essential Amino Acids Solution 100× (Gibco). For cell viability assays, cells were trypsinized, counted, and seeded into 384-well white polypropylene plates at 1,000 cells/well, unless otherwise specified. After allowing cells to adhere overnight, compounds in DMSO stocks were arrayed in a 16-point dilution series prepared in a mother plate, and treated from a daughter plate, [DMSO]=0.28%. After 24 or 48 h, 50% CellTiter-Glo (Promega) 50% cell culture medium was added to each well and incubated at room temperature with shaking for 15 min. Luminescence was measured using a Victor X5 plate reader (PerkinElmer). All cell viability data were normalized to the DMSO vehicle condition. […] All 384w measurements were performed in triplicate
We first evaluated the efficacy of four pyridine analogs, TH-2-9-1, TH-2-31, TH-2-37-1, and TH-2-37-2, in suppressing ferroptosis induced by IKE and RSL3 in HT-1080 cells. […] We sought to determine whether incorporation of pyridine changed stability in mouse liver microsomes.

[2] = test system: N27 rat dopaminergic cells; test: Suppression of ferroptosis induced by RSL3 in N27 cells (CellTiter-Glo viability); assay type: cell-based; settings: Rattus norvegicus, N27, 24 h, Table 3; ^d 24 hr treatment, 1,000 cells/well seeded; read-out: IC50
[3] = TH-2-31, TH-4-55-2, TH-4-67 PK Study (IP, IV, PO; plasma and brain); assay type: in vivo, C57BL/6 mice; settings: mouse, in vivo
Description: C57BL/6 mice (8-weeks of age and ˜25 g weight) were weighed before injection and divided into groups of two male and female mice per cage. Compound was dissolved in 5% DMSO/95% of 1:1 [(65% v/v of 25% w/v 2-hydroxypropyl-3-cyclodextrin (Cayman Chemical) dissolved in 20% EtOH, 30% v/v Poly(ethylene glycol)-400 (Sigma Aldrich 202398), 5% v/v Tween 80 (Fluka 59924)):MilliQ water] to create a 2 mg/mL solution. The same formulation without compound was used as a vehicle control. The solution was sterilized using a […] Steriflip filter unit (Thomas Scientific 1189Q46). Mice were dosed IP, IV, and PO routes of administration and euthanized by CO2 asphyxiation for 3 min at 0, 1, 2, 4, 8, and 24 h after administration. To ensure that the vehicle was well-tolerated 4 mice were treated with vehicle and euthanized 4 h after administration. ˜0.5 mL of blood was collected via cardiac puncture and immediately put in K3 EDTA microtubes ([…] 41.1504.105) and kept on ice. Organs were harvested, placed in Eppendorf tubes, and frozen on dry ice. Blood samples were centrifuged for 10 min at 2,100×g at 4° C., then plasma was transferred to a clean tube and frozen on dry ice. Organ samples were weighed and placed in hard tissue homogenizing tubes (Omni International 19-628) and a volume of DEPC-treated nuclease-free water (IBI Scientific IB42200) was added to make a 500 mg/mL solution and homogenized using the Omni Bead Ruptor 4 at speed 5 for 30 seconds. Compound was extracted from plasma or organ homogenate by adding 900 μL acetonitrile to 100 μL plasma or organ homogenate. Samples were mixed by vortexing and allowed to extract overnight at 4° C. prior to mixing for at least 5 min by rotating at room temperature, vortexing, and sonicating for at least 30 second prior to centrifugation for 10 min at 4,000×g and 4° C. The supernatant was then transferred to a glass vial and analyzed by UPLC-MS described below. The concentration of each analog was determined against a standard curve with a nonlinear fit and the data plot in GraphPad Prism 9 and fit with a one phase decay.
Samples from animal studies were analyzed via UPLC-MS using a Waters Xevo G2-Xs QTof Mass spectrometer equipped with an Acquity UPLC. Chromatographic separation was carried out at 50° C. on a Acquity UPLC BEH C18 column (1.7 μm, 2.1 mm×50 mm, pore size 130 Å) over a 4.5 min gradient elution. The flowrate was held constant at 0.8 mL/min. Mobile phase A consisted of water and mobile phase B consisted of ACN both containing 0.1% formic acid. After injection, the gradient was held at 50% A for 0.25 min. For the next minute, the gradient was ramped in a linear fashion to 100% B and held at this composition for 0.5 min. The eluent composition returned to the initial condition in 0.01 min and the column was re-equilibrated for 2.74 min before the next injection. Injection volumes were 0.5 μL (TH-2-31 40 mg/kg) and 1 μL for all other conditions. The Xevo G2-Xs was operated in positive electrospray ionization (ESI) mode. A capillary voltage and sampling cone voltage of 0.5 kV and 30 V were used. The source and desolvation temperatures were kept at 120° C. and […], respectively. Nitrogen was used as the desolvation gas with a flowrate of 750 L/hr. The protonated molecular ion of leucine encephalin ([M+H]^+, m/z 556.2771 was used as a lock mass for mass accuracy and reproducibility. Leucine enkephalin was introduced to the lock mass at a concentration of 2 ng/mL (50% ACN containing 0.1% formic acid), and a flow rate of […]. To avoid signal saturation, the signal transmission was attenuated to <10%, based off the signal intensity of the highest standard concentration for the duration of the run. The data was collected over the mass range m/z 50 to 1200 Da with an acquisition time of 0.1 seconds per scan. The retention time for each analog is detailed below. […]

[4] = ^b 2 μM IKE, 48 hours, 1,000 cells/well
[5] = ^c 0.2 μM RSL3, 48 hours, 1,000 cells/well

SMILES | half-life at 20 µM [1] [h] | potency relative to fer-1 at suppressing ferroptosis, in words (HT-1080 cells) | also measured
CC(C)(C)OC(=O)c1cc(NC2CCCCC2)c(NC23CC4CC(CC(C4)C2)C3)cc1Cl [AZII11, tert-butyl 4-(((3s,5s,7s)-adamantan-1-yl)amino)-2-chloro-5-(cyclohexylamino)benzoate] | – | less potent than fer-1 | microsomal stability / half-life, in words [1]: half-lives greater than two hours
CC(C)(C)OC(=O)c1cc(NC2CCCCC2)c(NC23CC4CC(CC(C4)C2)C3)cc1F [AZIII8, tert-butyl 4-(((3s,5s,7s)-adamantan-1-yl)amino)-5-(cyclohexylamino)-2-fluorobenzoate] | – | more potent than fer-1 | microsomal stability / half-life, in words [1]: half-lives greater than two hours
Cc1cc(NC23CC4CC(CC(C4)C2)C3)c(NC2CCCCC2)cc1C(=O)OC(C)(C)C [AZIII9, tert-butyl 4-(((3s,5s,7s)-adamantan-1-yl)amino)-5-(cyclohexylamino)-2-methylbenzoate] | – | less potent than fer-1 | microsomal stability / half-life, in words [1]: half-lives greater than two hours; also recorded: the most stable compound tested
Cc1noc(-c2ccc(NC3CCCCC3)c(N)c2)n1 [PHB4078, N1-cyclohexyl-4-(3-methyl-1,2,4-oxadiazol-5-yl)benzene-1,2-diamine] | < 1 | – | –
CC(C)(C)OC(=O)c1ccc(NC2CCCCC2)c(Nc2ccccc2)c1 [PHB4081, tert-butyl 4-(cyclohexylamino)-3-(phenylamino)benzoate] | < 1 | – | –
Cc1noc(-c2cc(NC3CCCCC3)cnc2NC2CCCCC2)n1 [TH-2-37-1, N^2,N^5-dicyclohexyl-3-(3-methyl-1,2,4-oxadiazol-5-yl)pyridine-2,5-diamine] | – | potencies greater than fer-1 | IC50 (HT-1080 cells; [4]): 7.5 nM; IC50 (HT-1080 cells; [5]): 4.3 nM
Cc1noc(-c2cc(NC(C)C)cnc2NC2CCCCC2)n1 [TH-2-37-2, N^2-cyclohexyl-N^5-isopropyl-3-(3-methyl-1,2,4-oxadiazol-5-yl)pyridine-2,5-diamine] | – | potencies greater than fer-1 | IC50 (HT-1080 cells; [4]): 5.4 nM; IC50 (HT-1080 cells; [5]): 3.8 nM
Cc1noc(-c2cnc(NC34CC5CC(CC(C5)C3)C4)c(NC3CCCCC3)c2)n1 [TH-4-100-2, N^2-((3s,5s,7s)-adamantan-1-yl)-N^3-cyclohexyl-5-(3-methyl-1,2,4-oxadiazol-5-yl) pyridine-2,3-diamine] | – | – | IC50 [2]: 18.9 nM; tolerability / adverse observations after dosing [3]: less impaired immediately following injection and recovered more quickly; also recorded: less impaired immediately following injection and recovered quicker

Now from value to molecule, other results behind:

half-life at 20 µM [1] [h] | SMILES | potency relative to fer-1 at suppressing ferroptosis, in words (HT-1080 cells) | also measured
< 1 | CC(C)(C)OC(=O)c1cc(N)c(NC23CC4CC(CC(C4)C2)C3)cc1F [AZII78, tert-butyl 4-(((3s,5s,7s)-adamantan-1-yl)amino)-5-amino-2-fluorobenzoate] | – | –
< 1 | Cc1cc(NC23CC4CC(CC(C4)C2)C3)c(N)cc1C(=O)OC(C)(C)C [AZIII4, tert-butyl 4-(((3s,5s,7s)-adamantan-1-yl)amino)-5-amino-2-methylbenzoate] | – | –
< 1 | Cc1noc(-c2ccc(NC34CC5CC(CC(C5)C3)C4)c(N)c2)n1 [PHB4066, N1-((3s,5s,7s)-adamantan-1-yl)-4-(3-methyl-1,2,4-oxadiazol-5-yl)benzene-1,2-diamine] | – | –
